What all share (assay): Method 1: intracellular Ca2+ release (FLIPR, Calcium 5) in recombinant CHO-K1 cells
Common to all, as to assay type: cell-based

Assay [1] has as its target T1, human S1PR1 receptor (Homo sapiens, UniProt P21453).
T1 construct: host or cells: CHO-K1
The following applies: (1): determined with method 1; read-out: S1P1 EC50. The procedure, abridged: (§1)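 Cells expressing the receptor with promiscuous Gq/i5 are dye-loaded, equilibrated at room temperature and challenged with test compound while fluorescence is recorded by FLIPR. Potency is derived by nonlinear fitting after normalization to phospho-fingolimod.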

The target of assay [2] is T2, human S1PR3 receptor (Homo sapiens, UniProt Q99500).
T2 construct: host or cells: CHO-K1
T2 sequence (Q99500 whole entry): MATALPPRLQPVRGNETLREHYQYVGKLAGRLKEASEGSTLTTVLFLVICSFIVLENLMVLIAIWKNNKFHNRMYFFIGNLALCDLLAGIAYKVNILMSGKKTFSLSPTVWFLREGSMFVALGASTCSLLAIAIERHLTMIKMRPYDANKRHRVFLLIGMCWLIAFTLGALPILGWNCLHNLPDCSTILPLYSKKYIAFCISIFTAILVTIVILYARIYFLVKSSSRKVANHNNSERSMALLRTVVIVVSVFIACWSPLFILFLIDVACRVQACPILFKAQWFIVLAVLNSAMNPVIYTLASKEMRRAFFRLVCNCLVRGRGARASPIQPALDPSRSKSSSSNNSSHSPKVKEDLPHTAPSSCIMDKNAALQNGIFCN
The following applies: (1): determined with method 1; read-out: S1P3 EC50. The procedure, abridged: as §1

The target of assay [3] is T3, human S1PR4 receptor (Homo sapiens, UniProt O95977).
T3 construct: host or cells: CHO-K1
T3 sequence (O95977 1-384): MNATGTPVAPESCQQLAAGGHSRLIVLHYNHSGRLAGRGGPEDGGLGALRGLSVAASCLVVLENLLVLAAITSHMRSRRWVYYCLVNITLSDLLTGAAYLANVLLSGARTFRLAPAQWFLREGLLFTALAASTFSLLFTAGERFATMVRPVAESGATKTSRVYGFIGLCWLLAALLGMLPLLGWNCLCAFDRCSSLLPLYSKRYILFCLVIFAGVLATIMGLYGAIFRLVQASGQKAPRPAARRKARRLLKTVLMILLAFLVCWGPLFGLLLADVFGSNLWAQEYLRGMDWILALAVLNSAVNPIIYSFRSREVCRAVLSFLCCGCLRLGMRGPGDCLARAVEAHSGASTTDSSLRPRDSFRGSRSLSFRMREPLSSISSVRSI
The following applies: (1): determined with method 1; read-out: S1P4 EC50. The procedure, abridged:
as §1

For assay [4], the target named is T4, human S1PR5 receptor (Homo sapiens, UniProt Q9H228).
T4 construct: host or cells: CHO-K1
T4 sequence (Q9H228 whole entry): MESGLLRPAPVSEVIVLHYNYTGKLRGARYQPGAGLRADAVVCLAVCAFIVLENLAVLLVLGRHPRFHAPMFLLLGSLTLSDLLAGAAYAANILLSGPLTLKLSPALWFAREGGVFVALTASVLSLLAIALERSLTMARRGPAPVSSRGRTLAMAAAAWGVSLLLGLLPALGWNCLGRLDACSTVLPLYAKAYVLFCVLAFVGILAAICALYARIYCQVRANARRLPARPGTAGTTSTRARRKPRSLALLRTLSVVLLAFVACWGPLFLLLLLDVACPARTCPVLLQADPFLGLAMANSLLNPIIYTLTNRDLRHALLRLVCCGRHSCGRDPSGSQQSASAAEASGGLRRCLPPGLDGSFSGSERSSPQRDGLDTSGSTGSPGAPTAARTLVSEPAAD
The following applies: agonist potency, determined with method 1 (symbols A-D); read-out: S1P5 EC50 range. Put shortly: as §1

Molecules are shown by their SMILES. Structures can show the parent of a compound that is named as a salt.

This note sets out measurements from US10556907B2 (AbbVie Inc., priority 2015, dated 2020).

As a reminder, the EC50 is the concentration at which the effect is half-maximal.

T1 sequence (P21453 whole entry): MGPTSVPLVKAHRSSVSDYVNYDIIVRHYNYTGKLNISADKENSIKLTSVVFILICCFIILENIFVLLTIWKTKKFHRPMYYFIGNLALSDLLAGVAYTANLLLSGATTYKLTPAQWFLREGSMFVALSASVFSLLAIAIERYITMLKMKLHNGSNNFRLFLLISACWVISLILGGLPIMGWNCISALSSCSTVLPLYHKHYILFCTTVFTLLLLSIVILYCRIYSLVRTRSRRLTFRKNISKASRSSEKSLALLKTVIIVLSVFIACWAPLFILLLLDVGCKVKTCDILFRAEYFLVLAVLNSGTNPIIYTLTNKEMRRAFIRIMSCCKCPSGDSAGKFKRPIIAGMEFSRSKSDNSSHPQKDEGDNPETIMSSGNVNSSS

Take `CC(CC(=O)O)CN1CCc2nc(-c3ccc(C(F)Cc4ccc(Cl)cc4F)cc3)ncc2C1` (stereo not drawn) [Compound 253]: the EC50 in assay [1] was greater than 1000 nM; in assay [2] it was greater than 1000 nM; in assay [3], greater than 1000 nM; in assay [4] it was less than 10 nM.

Take `O=C(O)C1CC(N2CCc3nc(C#Cc4ccc(OCc5ccccc5)cc4)ncc3C2)C1` (stereo not drawn) [Compound 59, 3-(2-((4-(benzyloxy)phenyl)ethynyl)-7,8-dihydropyrido[4,3-d]pyrimidin-6(5H)-yl)cyclobutanecarboxylic acid]: the EC50 in assay [1] is greater than 1000 nM; in assay [2], greater than 1000 nM; in assay [3], greater than 1000 nM; in assay [4] it was 1000 to 10000 nM.

As for `CC(CC(=O)O)CN1CCc2nc(-c3ccc(OCc4ccccc4C(F)(F)F)cc3)ncc2C1` (stereo not drawn) [Compound 254, 3-methyl-4-[2-[4-[[2-(trifluoromethyl)phenyl]methoxy]phenyl]-7,8-dihydro-5H-pyrido[4,3-d]pyrimidin-6-yl]butanoic acid 2,2,2-trifluoroacetic acid salt], the concentration for a half-maximal effect (EC50) was greater than 1000 nM in assay [1], greater than 1000 nM in assay [2], greater than 1000 nM in assay [3] and less than 10 nM in assay [4].

Turning to `CC(CC(=O)O)CN1CCc2nc(-c3ccc(OCc4ccc(Cl)cc4)cc3)ncc2C1` (racemic) [Compound 23, 4-(2-(4-((4-chlorobenzyl)oxy)phenyl)-7,8-dihydropyrido[4,3-d]pyrimidin-6(5H)-yl)-3-methylbutanoic acid], the EC50 in assay [1] is greater than 1000 nM; in assay [2], greater than 1000 nM; in assay [3], greater than 1000 nM; in assay [4], less than 10 nM.

As for `CC(CC(=O)O)CN1CCc2nc(-c3ccc(OCc4cccc(Cl)c4Cl)cc3)ncc2C1` (stereo not drawn) [Compound 268, 4-[2-[4-[(2,3-dichlorophenyl)methoxy]phenyl]-7,8-dihydro-5H-pyrido[4,3-d]pyrimidin-6-yl]-3-methyl-butanoic acid 2,2,2-trifluoroacetic acid salt], the EC50 in assay [1] is greater than 1000 nM; in assay [2], greater than 1000 nM; in assay [3], greater than 1000 nM; in assay [4], 10 to 100 nM.

Regarding `Cc1ccc(COc2ccc(-c3ncc4c(n3)CCN(CC(C)CC(=O)O)C4)cc2)cc1C(F)(F)F` (stereo not drawn) [Compound 247, 3-methyl-4-[2-[4-[[4-methyl-3-(trifluoromethyl)phenyl]methoxy]phenyl]-7,8-dihydro-5H-pyrido[4,3-d]pyrimidin-6-yl]butanoic acid 2,2,2-trifluoroacetic acid salt], the EC50 is greater than 1000 nM in assay [1], greater than 1000 nM in assay [2], greater than 1000 nM in assay [3] and less than 10 nM in assay [4].

Take `O=C(O)CCN1CCc2nc(-c3ccc(OCc4ccccc4C(F)F)cc3)ccc2C1` [Compound 165, 3-(2-(4-((2-difluoromethylbenzyl)oxy)phenyl)-7,8-dihydro-1,6-naphthyridin-6(5H)-yl)propanoic acid]: the EC50 in assay [1] was greater than 1000 nM; in assay [2], greater than 1000 nM; in assay [3], greater than 1000 nM; in assay [4], less than 10 nM.

Regarding `O=C(O)C1CC(N2CCc3nc(C#Cc4ccc(Cl)cc4)ncc3C2)C1` (stereo not drawn) [Compound 54, 3-(2-((4-chlorophenyl)ethynyl)-7,8-dihydropyrido[4,3-d]pyrimidin-6(5H)-yl)cyclobutanecarboxylic acid], the EC50 in assay [1] is greater than 1000 nM; in assay [2], greater than 1000 nM; in assay [3], greater than 1000 nM; in assay [4], 1000 to 10000 nM.

For the molecule `Cc1ccccc1C#Cc1ncc2c(n1)CCN(C1CC(C(=O)O)C1)C2` (stereo not drawn) [Compound 55, 3-(2-(o-tolylethynyl)-7,8-dihydropyrido[4,3-d]pyrimidin-6(5H)-yl)cyclobutanecarboxylic acid], the EC50 is greater than 1000 nM in assay [1], greater than 1000 nM in assay [2], greater than 1000 nM in assay [3] and 1000 to 10000 nM in assay [4].

Turning to `CC(CC(=O)O)CN1CCc2nc(-c3ccc(OCc4ccc(Cl)cc4)cc3)ncc2C1` (single isomer, unassigned; (+)) [Compound 212, (+)-4-(2-(4-((4-chlorobenzyl)oxy)phenyl)-7,8-dihydropyrido[4,3-d]pyrimidin-6(5H)-yl)-3-methylbutanoic acid], the half-maximal effective concentration (EC50) in assay [1] was greater than 1000 nM; in assay [2], greater than 1000 nM; in assay [3], greater than 1000 nM; in assay [4], less than 10 nM.

`O=C(O)C1CC(N2CCc3nc(C#Cc4cccc(Cl)c4)ccc3C2)C1` (stereo not drawn) [Compound 128, 3-(2-((3-chlorophenyl)ethynyl)-7,8-dihydro-1,6-naphthyridin-6(5H)-yl)cyclobutanecarboxylic acid]: the EC50 was greater than 1000 nM in assay [1], greater than 1000 nM in assay [2], greater than 1000 nM in assay [3] and 1000 to 10000 nM in assay [4].

For `CSc1ccc(COc2ccc(-c3ncc4c(n3)CCN(CC(C)CC(=O)O)C4)cc2)cc1` (stereo not drawn) [Compound 257, 3-methyl-4-[2-[4-[(4-methylsulfanylphenyl)methoxy]phenyl]-7,8-dihydro-5H-pyrido[4,3-d]pyrimidin-6-yl]butanoic acid 2,2,2-trifluoroacetic acid salt], the EC50 in assay [1] was greater than 1000 nM; in assay [2], greater than 1000 nM; in assay [3], greater than 1000 nM; in assay [4] it was 10 to 100 nM.

For the molecule `CC(CC(=O)O)N1CCc2nc(-c3ccc(OCc4ccc(Cl)c(Cl)c4)cc3)ncc2C1` (stereo not drawn) [Compound 45, 3-(2-(4-((3,4-dichlorobenzyl)oxy)phenyl)-7,8-dihydropyrido[4,3-d]pyrimidin-6(5H)-yl)butanoic acid], the concentration giving a half-maximal response (EC50) in assay [1] was greater than 1000 nM; in assay [2] it was greater than 1000 nM; in assay [3], greater than 1000 nM; in assay [4] it was 10 to 100 nM.

Regarding `O=C(O)CCN1CCc2nc(-c3ccc(OCc4cccc(Cl)c4)cc3)cnc2C1` [Compound 179, 3-(2-(4-((3-chlorobenzyl)oxy)phenyl)-7,8-dihydropyrido[3,4-b]pyrazin-6(5H)-yl)propanoic acid], the EC50 in assay [1] is greater than 1000 nM; in assay [2] it was less than 1000 nM; in assay [3], greater than 1000 nM; in assay [4], less than 10 nM.

In the case of `C[C@H](CC(=O)O)CN1CCc2nc(-c3ccc(CCc4ccc(Cl)cc4)cc3)ncc2C1` [Compound 237, (R)-4-(2-(4-(4-chlorophenethyl)phenyl)-7,8-dihydropyrido[4,3-d]pyrimidin-6(5H)-yl)-3-methylbutanoic acid], the EC50 in assay [1] was greater than 1000 nM; in assay [2] it was greater than 1000 nM; in assay [3], greater than 1000 nM; in assay [4], less than 10 nM.

On to `CC(CC(=O)O)CN1CCc2nc(-c3ccc(OCc4ccc(C(F)(F)F)cc4)cc3)ncc2C1` (stereo not drawn) [Compound 233, 3-methyl-4-(2-(4-((4-(trifluoromethyl)benzyl)oxy)phenyl)-7,8-dihydropyrido[4,3-d]pyrimidin-6(5H)-yl)butanoic acid], for which the EC50 is less than 1000 nM in assay [1], greater than 1000 nM in assay [2], less than 1000 nM in assay [3] and less than 10 nM in assay [4].

On to `CC(C)c1ccc(C#Cc2ccc3c(n2)CCN(C2CC(C(=O)O)C2)C3)cc1` (stereo not drawn) [Compound 124, 3-(2-((4-isopropylphenyl)ethynyl)-7,8-dihydro-1,6-naphthyridin-6(5H)-yl)cyclobutanecarboxylic acid], for which the concentration for a half-maximal effect (EC50) in assay [1] was greater than 1000 nM; in assay [2] it was greater than 1000 nM; in assay [3], greater than 1000 nM; in assay [4] it was 1000 to 10000 nM.

With `Cc1ccc(C(F)(F)F)c(COc2ccc(-c3ncc4c(n3)CCN(CC(C)CC(=O)O)C4)cc2)c1` (stereo not drawn) [Compound 275, 3-methyl-4-[2-[4-[[5-methyl-2-(trifluoromethyl)phenyl]methoxy]phenyl]-7,8-dihydro-5H-pyrido[4,3-d]pyrimidin-6-yl]butanoic acid 2,2,2-trifluoroacetic acid salt], the EC50 in assay [1] was greater than 1000 nM; in assay [2] it was greater than 1000 nM; in assay [3], greater than 1000 nM; in assay [4] it was 10 to 100 nM.

`CC(CC(=O)O)CN1CCc2nc(-c3ccc(OCc4cccc(F)c4F)cc3)ncc2C1` (stereo not drawn) [Compound 226, 4-[2-[4-[(2,3-difluorophenyl)methoxy]phenyl]-7,8-dihydro-5H-pyrido[4,3-d]pyrimidin-6-yl]-3-methyl-butanoic acid 2,2,2-trifluoroacetic acid salt]: the EC50 in assay [1] was less than 1000 nM; in assay [2], greater than 1000 nM; in assay [3] it was greater than 1000 nM; in assay [4] it was less than 10 nM.

For `Cc1ccc(COc2ccc(-c3ncc4c(n3)CCN(CCC(=O)O)C4)cc2)cc1C(F)(F)F` [Compound 89, 3-(2-(4-((4-methyl-3-(trifluoromethyl)benzyl)oxy)phenyl)-7,8-dihydropyrido[4,3-d]pyrimidin-6(5H)-yl)propanoic acid], the EC50 in assay [1] is greater than 1000 nM; in assay [2], greater than 1000 nM; in assay [3] it was greater than 1000 nM; in assay [4], less than 10 nM.

In the case of `CC(C)(C)c1ccc(COc2ccc(-c3ccc4c(n3)CCN(CCC(=O)O)C4)cc2)cc1` [Compound 156, 3-(2-(4-((4-(tert-butyl)benzyl)oxy)phenyl)-7,8-dihydro-1,6-naphthyridin-6(5H)-yl)propanoic acid], the EC50 in assay [1] is greater than 1000 nM; in assay [2], greater than 1000 nM; in assay [3], greater than 1000 nM; in assay [4], less than 10 nM.
